{"source": "patent US20220347299A1", "about": "“FLUORESCENT SYSTEMS FOR BIOLOGICAL IMAGING AND USES THEREOF” (LIGHTOX LIMITED, priority 2019, published 2022)", "key": {"Bacillus subtilis": {"system": "Bacillus subtilis", "experiment": "Overnight growth curve (OD 600 nm) cytotoxicity assay, B. subtilis", "format": "cell-based", "method": "A sample of B. subtilis was taken from a plate culture and inoculated into Luria Broth to culture overnight at 37° C. for approximately 16 hours. [table] Samples were incubated in darkness at room temperature for approximately 2 hrs. A black clear bottom Costar™-96 well plate was then filled, with 200 μl of sample in each well Cells were irradiated for 5 minutes at approximately 15 mW/cm^2. The cytotoxicity of the compounds without irradiation was also assessed. The 96 well plate was put into the plate reader and set up to run a growth curve protocol using the following parameters: • Incubation temperature: 37° C. • OD read wavelength 600 nm • 250 cycles, readings every 5 rains • Shaking for 5 s pre-reading This was left to run overnight to obtain kinetic growth curves based on optical density readings."}, "[1]": {"experiment": "Peak absorption and fluorescence emission wavelengths in solvents", "format": "physicochemical", "conditions": "for λem(max)/nm: 100 nM, excitation at peak of absorption; for λabs(max)/nm: 10 μM", "method": "Peak absorption and fluorescence emission wavelengths of compounds 6, 7, 12, 13, 14, 15, 19, 23, 27, 30 and 34 were measured in a variety of solvents, and the results are shown in Table 1. Absorption measurements were recorded at a concentration of 10 μM, and emission measurements were recorded at a concentration of 100 nM. Emission spectra were recorded with excitation at the peak of absorption (S0→S1)."}, "Mycobacterium smegmatis": {"system": "Mycobacterium smegmatis", "experiment": "Overnight growth curve (OD 600 nm) cytotoxicity assay, M. smegmatis", "format": "cell-based", "method": "A sample of M. smegmatis was taken from a plate culture and inoculated into Middlebrook 7H9 broth containing an added Middlebrook ADC growth supplement to culture overnight at 37° C. for approximately 16 hours.\nSamples were incubated in darkness at room temperature for approximately 2 hrs. A black clear bottom Costar™-96 well plate was then filled, with 200 μl of sample in each well Cells were irradiated for 5 minutes at approximately 15 mW/cm^2. The cytotoxicity of the compounds without irradiation was also assessed.\nThe 96 well plate was put into the plate reader and set up to run a growth curve protocol using the following parameters: • Incubation temperature: 37° C. • OD read wavelength 600 nm • 250 cycles, readings every 5 rains • Shaking for 5 s pre-reading\nThis was left to run overnight to obtain kinetic growth curves based on optical density readings."}, "HaCaT keratinocytes": {"system": "HaCaT keratinocytes", "experiment": "Co-staining with organelle markers, co-localisation (PCC)", "format": "cell-based", "conditions": "1 μM compound, 30 minutes, BODIPY ER-Tracker Red", "method": "To study the localisation of compounds in biological cells, co-staining of compounds of formula I with specific organelle markers (fluorescent dyes and antibodies) within biological cells was conducted. The following compounds were studied: compounds 6, 7, 12, 13, 14 and 15. HaCaT keratinocyte cell lines were used for the following experimental procedures. The cells were incubated in cell culture media (94% Dulbecco's Modified Eagle Medium (DMEM), 5% Foetal Bovine Serum (FBS) and 1% Penicillin Streptomycin solution (Pen-Strep). The cells were plated in 8-well plates, at a concentration of 25,000 cells per ml. 200 μl of cell suspension was added to each well, and the cells were incubated for 2 days before staining and imaging was carried out. In order to visualise the mitochondria, cells were probed with the mitochondrial dye MitoTracker® Deep Red. Cells to be stained were incubated with 200 μl MitoTracker® Deep Red solution (200 nM MitoTracker® and 1 μM Formula I compound in cell culture media) per well (N=3) for 30 minutes. Nile Red was used to identify lipids within the cells. 200 μl Nile Red Lipophilic dye (10 μg/ml Nile Red and 1 μM Formula I compound in cell culture media) was added to each well (N=3) and incubated for 30 minutes. For the detection of lysosomes within the cells, LysoTracker® Red DND-99 dye was used. 200 μl LysoTracker® Red DND-99 (50 nM LysoTracker® and 1 μM Formula I compound solution in cell culture media) was added to each well (N=3) and incubated for 30 minutes. For visualisation of the endoplasmic reticulum (ER), cells were stained with BODIPY® ER-Tracker® Red. 200 μl BODIPY ER-Tracker® Red (1 μM BODIPY® and 1 μM Formula I compound solution in cell culture media) was added to each well (N=3) and incubated for 30 minutes. Following incubation, the cell culture media containing dye was removed, and cells were washed twice with 200 μl phosphate buffered saline (PBS). After washing, 200 μl PBS was added into each well for imaging. For visualisation of the nuclear lamina, cells were probed with an anti-lamin A/C antibody. The cells were plated on 22×22 mm cover slips (10,000 cells/ml) and incubated for 2 days before staining. The cells were washed with PBS to remove excess media before staining. The cells were fixed with 4% paraformaldehyde (PFA) for 10 minutes at room temperature, before being washed twice in PBS for 5 minutes. Following washing, the cells were permeabilised in 0.4% Triton X-100 in PBS for 10 minutes. The cells were subsequently washed three times in PBS for 5 minutes, before being incubated in blocking buffer (1% BSA, 0.1% fish gelatine and 0.1% Triton X-100 in PBS) for 15 minutes at room temperature. The cells were incubated in primary antibody (mouse anti-lamin A/C IgG in blocking buffer) for 1 hour at room temperature. The cells were then washed twice in blocking buffer and incubated in secondary antibody (anti-mouse Alexa-594 IgG in blocking buffer) for 30 minutes at room temperature. Cells were washed twice in PBS for 10 minutes at room temperature. For cell staining with compounds of formula I, 5 μM of the compound of formula I in PBS was added to the cells for 30 minutes at room temperature. Cells were then washed five times for 5 minutes in PBS. Following washing, the cells were mounted onto non-charged microscopy slides using 6 μl Mowiol® per cover slip as mounting media. A Zeiss 880 confocal microscope was used for all the imaging work. [table] Image) Coloc2 software was used to calculate co-localization statistics between the compounds of formula I and the organelle marker images. The background was subtracted from each image and a region of interest (ROI) was used to target the analysis. The point spread function (PSF) of each image was calculated as 2.0 and Coastes' iterations was set to 100. The statistic quantified was the Pearson's Correlation Coefficient (PCC). PCC gives a number ranging from +1 to −1:1=perfect co-localisation; 0=no relationship; and, −1=perfect anti-co-localisation. […]"}}, "data": [{"molecule": "COC(=O)/C=C/c1ccc(C#Cc2ccc(N(C)CCN)cc2)cc1", "note": "[Compound 12, methyl (2E)-3-[4-(2-{4-[(2-aminoethyl)(methyl)amino]phenyl}ethynyl)phenyl]prop-2-enoate]", "values": [{"measurement": "growth of B. subtilis, non-irradiated", "setting": "Bacillus subtilis; 1 μM, not irradiated", "result": "slightly less growth than the untreated samples as well as an increased lag time"}, {"measurement": "growth of B. subtilis", "setting": "Bacillus subtilis; 100 μM and 10 μM, with or without photoactivation", "result": "no growth is observed regardless of any photoactivation"}, {"measurement": "cytotoxicity in B. subtilis compared with compound 6", "setting": "Bacillus subtilis; 10 and 1 μM", "result": "more cytotoxicity"}, {"measurement": "λem(max)/nm", "setting": "[1]; DCM", "result": 551, "unit": "nm"}, {"measurement": "λabs(max)/nm", "setting": "[1]; DCM", "result": 371, "unit": "nm"}, {"measurement": "λem(max)/nm", "setting": "[1]; Toluene", "result": 482, "unit": "nm"}, {"measurement": "λabs(max)/nm", "setting": "[1]; Toluene", "result": 380, "unit": "nm"}, {"measurement": "growth of M. smegmatis, radiated samples", "setting": "Mycobacterium smegmatis; 100 μM, 405 nm, 5 min, approximately 15 mW/cm^2", "result": "begin to indicate some cytotoxicity"}, {"measurement": "growth of M. smegmatis, no photoactivation", "setting": "Mycobacterium smegmatis; 1-100 μM, not irradiated", "result": "no significant difference between the treated and untreated controls"}, {"measurement": "average PCC Value with BODIPY ER-Tracker", "setting": "HaCaT keratinocytes", "result": 0.34}]}]}
